The results in this text go back to US20050142111A1, “Method to prevent transplant rejection by stable expression of heme oxygenase-1” (priority 2003, published 2005).

Structures are written as SMILES.

For one test, the target named is T1, HO (Rattus norvegicus, UniProt P06762).
T1 construct: expressed in transfected cells; host or cells: LEW rat heart allografts transduced with rAAV/HO-1, in F344 rat recipients (in vivo)
T1 sequence (P06762 1-289): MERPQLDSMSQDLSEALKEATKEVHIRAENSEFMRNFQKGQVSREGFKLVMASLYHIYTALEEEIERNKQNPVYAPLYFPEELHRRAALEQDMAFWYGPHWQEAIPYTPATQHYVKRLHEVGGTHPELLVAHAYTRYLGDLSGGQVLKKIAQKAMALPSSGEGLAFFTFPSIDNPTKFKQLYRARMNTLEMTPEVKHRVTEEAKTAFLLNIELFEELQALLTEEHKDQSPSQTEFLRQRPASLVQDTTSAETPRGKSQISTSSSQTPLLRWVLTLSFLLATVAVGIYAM
Nature of the test: Blocking of HO activity by ZnPPIX, carboxyhemoglobin in peripheral blood of recipients. The format is in vivo. Conditions: 2 mg/kg/day intraperitoneally to recipients. As for the experimental part:
Heme oxygenase-1 inhibitor, zinc protoprophyrin IX (ZnPPIX, Calbiochem-Novabiochem, Germany) was administered intraperitoneally according to the experimental protocols.
The HO enzyme activity was measured by two of its end products: carbon monoxide and biliverdin/bilirubin. The amount of carbon monoxide was measured by spectrophotometry providing a determination of carboxyhemoglobin in the peripheral blood of the animals. The level of intragraft bilirubin was measured by the method as described. In brief, the frozen samples of grafts were homogenized in ice-cold sucrose and Tri-HCl buffer. The microsomal pellet was obtained after centrifugation, and re-suspended in MgCl2-potassium phosphate buffer. Sample protein was then incubated with the reaction mixture containing rat liver cytosol, hemin, glucose-6-phosphate, glucose-6-phosphate dehydrogenase and NADPH (Sigma-Aldrich, St. Louis) for 60 minutes at 37° C. The generated bilirubin was measured by reacting with diazotized surfanilic acid to yield azobilirubin using spectrophotometry. The level of intragraft bilirubin was deduced by the ratio of its contents in the sample/naive heart. […]

The subject of test [1] is LEW heart grafts to F344 recipients. Nature of the test: Allogeneic heart transplant graft survival. The format is in vivo, rat. How it is done: LEW (RT1′) and F344 (RT1^lvl) rats were purchased from the Institute of Laboratory Animals, Medical School Hannover, Germany, and maintained in the Laboratory Animal Unit, The University of Hong Kong. All experimental procedures were performed according to institutional guidelines and approved by the Committee on the Use of Live Animal in Teaching and Research. Allogeneic heart transplants were performed using LEW and F344 rats weighing from 200-250 grams as donors or recipients respectively. For the syngeneic graft, LEW rats were used as recipients. In brief, after in situ perfusion of donor heart grafts with the HTK solution (Koehler Chemie, Germany), 1×10^12 vector genomes of rAAV/GFP or rAAV/HO-1 were administered into the heart graft via the coronary artery. Grafts were then preserved in cold HTK solution for 6 hours before the transplant. The implantation procedure was as described in the literature. Graft function was monitored by daily palpation, and the allograft rejection was defined by full cessation of ventricular contraction, and confirmed by pathological examination.
Heme oxygenase-1 inhibitor, zinc protoprophyrin IX (ZnPPIX, Calbiochem-Novabiochem, Germany) was administered intraperitoneally according to the experimental protocols. […]

Consider `C=CC1=C(C)c2cc3[n-]c(cc4[n-]c(cc5nc(cc1n2)C(C)=C5C=C)c(C)c4CCC(=O)O)c(CCC(=O)O)c3C.[Zn+2]` [ZnPPIX, zinc protoporphyrin IX], for which the “HO activity, level of carboxyhemoglobin” value on HO is reported as “significantly inhibited”. Besides, in test [1] (ZnPPIX administered from day 31 to 100), the “graft survival rate in rAAV/HO-1+CsA group” value is listed as “remained unchanged”. Besides, in test [1] (combined administration of ZnPPIX from day 0 to 30), the “graft survival in rAAV/HO-1+CsA group” value is on record as “shortened”.
